Measured values published in ChEMBL document CHEMBL6083292, “Discovery of Novel N-Sulfonamide-tetrahydroquinolines as Potent Retinoic Acid Receptor-Related Orphan Receptor γt (RORγt) Inverse Agonists for the Treatment of Psoriasis” (J Med Chem, 2024).
Each block holds one compound with its values, some of them ahead of it. Activity calls are given as the source filed them. The rule behind the calls is not given here.

Tests used:
[1] = biological target: T1, Nuclear receptor ROR-gamma (Homo sapiens, UniProt P51449); experiment: Inverse agonist activity at APC-labeled RORgammat LBD (unknown origin) assessed as inhibition of europium-labeled SRC-1 recruitment incubated for 1 hrs by dual FRET assay
T1 sequence (P51449 whole entry): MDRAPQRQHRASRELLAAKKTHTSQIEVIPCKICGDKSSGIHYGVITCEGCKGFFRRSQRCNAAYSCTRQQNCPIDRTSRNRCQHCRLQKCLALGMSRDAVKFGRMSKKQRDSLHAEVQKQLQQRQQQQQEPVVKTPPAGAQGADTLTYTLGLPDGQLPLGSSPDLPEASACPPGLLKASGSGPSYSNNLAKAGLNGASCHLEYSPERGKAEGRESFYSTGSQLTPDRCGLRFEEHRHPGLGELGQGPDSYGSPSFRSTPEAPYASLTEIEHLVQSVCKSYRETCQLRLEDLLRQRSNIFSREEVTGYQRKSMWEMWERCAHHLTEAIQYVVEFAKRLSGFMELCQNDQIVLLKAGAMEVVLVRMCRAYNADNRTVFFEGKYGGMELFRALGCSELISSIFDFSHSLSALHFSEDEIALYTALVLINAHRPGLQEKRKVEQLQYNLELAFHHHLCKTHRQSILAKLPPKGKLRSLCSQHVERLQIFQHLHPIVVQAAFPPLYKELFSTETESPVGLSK

[2] = Inhibition of mouse Th17 cells differentiation from CD4+ T cells assessed as maximum inhibition flow cytometric analysis relative to control; type: functional
Mus musculus [3] = experiment: Antiinflammatory activity against imiquimod-induced psoriasis BALB/c mouse model assessed as reduction in body weight at 5 mg/kg, ip qd for 7 days; type: functional; set-up: scale not given: the % may be the effect or the level left; details: time 7 day
Mus musculus [4] = experiment: Antiinflammatory activity against imiquimod-induced psoriasis BALB/c mouse model assessed as body weight at 5 mg/kg, ip qd for 7 days; type: functional; details: time 7 day
Mus musculus [5] = experiment: Antiinflammatory activity against imiquimod-induced psoriasis BALB/c mouse model assessed as reduction in spleen to body weight ratio at 5 mg/kg, ip qd for 7 days; type: functional, organism-based; details: time 7.0 day
[6] = Drug concentration in BALB/c mouse plasma at 4 % administered topically as ointment measured at 10 mins; type: ADME, cell-free; details: topical or ocular
[7] = Drug concentration in pig ear assessed as retention amount at 0.0094 g administered intradermally as 4 % ointment measured at 12 hrs; type: ADME, tissue-based, Sus scrofa; details: in vivo, other
[8] = Metabolic stability in CD-1 mouse liver assessed as intrinsic clearance preincubated for 5 mins followed by NADPH addition and measured upto 60 mins by LC-MS/MS analysis; type: ADME, tissue-based; details: time < 65 min, read-out: CLH
Mus musculus [9] = experiment: Anti-inflammatory activity in imiquimod-induced BALB/c mouse psoriasis model assessed as appearance of smooth skin at 4 % administered topically as ointment once a day for 11 days by H and E staining based analysis; type: functional, organism-based; details: time 11.0 day
Mus musculus [10] = experiment: Antiinflammatory activity against imiquimod-induced psoriasis BALB/c mouse model assessed as change in ear erythema score at 100 mg/kg, ip qd for 7 days; type: functional, organism-based; details: time 7.0 day
[11] = Acute toxicity in BALB/c mouse assessed as signs of morbidity at 10 to 20 % administered topically as ointment once a day for 12 days; details: in vivo, topical_or_ocular, 288 h, dose 10-20 %, time 12 day
[12] = Drug concentration in pig ear assessed as retention amount at 0.0085 g administered intradermally as 4 % ointment measured at 12 hrs; type: ADME, tissue-based, Sus scrofa; details: in vivo, other
[13] = Inhibition of mouse Th17 cells differentiation from CD4+ T cells flow cytometric analysis
[14] = Drug concentration in BALB/c mouse plasma at 4 % administered topically as ointment measured at 2 hrs; type: ADME, cell-free; details: topical_or_ocular
Mus musculus [15] = experiment: Anti-inflammatory activity in imiquimod-induced BALB/c mouse psoriasis model assessed as appearance of clear hair follicle at 4 % administered topically as ointment once a day for 11 days by H and E staining based analysis; type: functional, organism-based; details: time 11.0 day
[16] = Drug concentration in pig ear assessed as retention rate at 0.0086 g administered intradermally as 4 % ointment measured at 12 hrs; type: ADME, tissue-based, Sus scrofa; details: in vivo, other
Mus musculus [17] = experiment: Antiinflammatory activity against imiquimod-induced psoriasis BALB/c mouse model at 1 to 4 % administered topically as ointment once a day for 11 days; type: functional, organism-based; details: time 11.0 day
Mus musculus [18] = experiment: Antiinflammatory activity against imiquimod-induced psoriasis BALB/c mouse model assessed as body weight at 100 mg/kg, ip qd for 7 days; type: functional; details: time 7 day
[19] = Metabolic stability in CD-1 mouse microsomes assessed as intrinsic clearance preincubated for 5 mins followed by NADPH addition and measured upto 60 mins by LC-MS/MS analysis; type: ADME, Microsome; details: time < 65 min, read-out: CLH
[20] = Drug concentration in pig ear assessed as retention rate at 0.0085 g administered intradermally as 4 % ointment measured at 12 hrs; type: ADME, tissue-based, Sus scrofa; details: in vivo, other
[21] = biological target: Voltage-gated inwardly rectifying potassium channel KCNH2 (Homo sapiens, UniProt Q12809); experiment: Inhibition of hERG at -80 mV holding potential measured for 2.5 mins; type: toxicity
Mus musculus [22] = experiment: Antiinflammatory activity against imiquimod-induced psoriasis BALB/c mouse model assessed as change in ear thickness at 100 mg/kg, ip qd for 7 days; type: functional, organism-based; details: time 7.0 day
Mus musculus [23] = experiment: Anti-inflammatory activity in imiquimod-induced BALB/c mouse psoriasis model assessed as improvement in spinous cell layer at 4 % administered topically as ointment once a day for 11 days by H and E staining based analysis; type: functional, organism-based; details: time 11.0 day
[24] = Drug concentration in pig ear assessed as retention amount at 0.0090 g administered intradermally as 4 % ointment measured at 12 hrs; type: ADME, tissue-based, Sus scrofa; details: in vivo, other
[25] = Toxicity in BALB/c mouse assessed as change in body weight at 0.25 to 4 % administered topically as ointment once a day for 11 days; details: in vivo, topical_or_ocular, 264 h, dose 0.25-4 %, time 11 day
Mus musculus [26] = experiment: Antiinflammatory activity against imiquimod-induced psoriasis BALB/c mouse model assessed as effect on spleen enlargement at 100 mg/kg, ip qd for 7 days; type: functional, organism-based; details: time 7.0 day
[27] = Drug concentration in pig ear assessed as retention rate at 0.0090 g administered intradermally as 4 % ointment measured at 12 hrs; type: ADME, tissue-based, Sus scrofa; details: in vivo, other
[28] = Drug concentration in pig ear assessed as retention rate at 0.0094 g administered intradermally as 4 % ointment measured at 12 hrs; type: ADME, tissue-based, Sus scrofa; details: in vivo, other
Mus musculus [29] = experiment: Antiinflammatory activity against imiquimod-induced psoriasis BALB/c mouse model at 0.25 to 4 % administered topically as ointment once a day for 11 days; type: functional, organism-based; details: dose 0.25-4 %, time 11.0 day
[30] = Acute toxicity in BALB/c mouse assessed as signs of mortality at 10 to 20 % administered topically as ointment once a day for 12 days; details: in vivo, topical_or_ocular, 288 h, dose 10-20 %, time 12 day
[31] = Metabolic stability in CD-1 mouse liver microsomes assessed as half life preincubated for 5 mins followed by NADPH addition and measured upto 60 mins by LC-MS/MS analysis; type: ADME, Microsome; details: time < 65 min
Mus musculus [32] = experiment: Anti-inflammatory activity in imiquimod-induced BALB/c mouse psoriasis model assessed as appearance of clear sebaceous gland at 4 % administered topically as ointment once a day for 11 days by H and E staining based analysis; type: functional, organism-based; details: time 11.0 day
[33] = Acute toxicity in BALB/c mouse at 20 % administered topically as ointment once a day for 12 days; details: in vivo, topical_or_ocular, 288 h, time 12 day
[34] = Acute toxicity in BALB/c mouse assessed as body weight gain at 10 to 20 % administered topically as ointment once a day for 12 days; details: in vivo, topical_or_ocular, 288 h, dose 10-20 %, time 12 day
Mus musculus [35] = experiment: Antiinflammatory activity against imiquimod-induced psoriasis BALB/c mouse model assessed as reduction in body weight at 100 mg/kg, ip qd for 7 days; type: functional; set-up: scale not given: the % may be the effect or the level left; details: time 7 day
Mus musculus [36] = experiment: Antiinflammatory activity against imiquimod-induced psoriasis BALB/c mouse model at 4 % administered topically as ointment once a day for 11 days; type: functional, organism-based; details: time 11.0 day
Mus musculus [37] = experiment: Anti-inflammatory activity in imiquimod-induced BALB/c mouse psoriasis model assessed as reduction in dermal inflammatory cell infiltration at 4 % administered topically as ointment once a day for 11 days by H and E staining based analysis; type: functional, organism-based; details: time 11.0 day
[38] = Toxicity in BALB/c mouse assessed as change in body weight at 4 % administered topically as ointment once a day for 11 days; details: in vivo, topical_or_ocular, 264 h, time 11 day

Sequence of Voltage-gated inwardly rectifying potassium channel KCNH2 (Q12809 whole entry): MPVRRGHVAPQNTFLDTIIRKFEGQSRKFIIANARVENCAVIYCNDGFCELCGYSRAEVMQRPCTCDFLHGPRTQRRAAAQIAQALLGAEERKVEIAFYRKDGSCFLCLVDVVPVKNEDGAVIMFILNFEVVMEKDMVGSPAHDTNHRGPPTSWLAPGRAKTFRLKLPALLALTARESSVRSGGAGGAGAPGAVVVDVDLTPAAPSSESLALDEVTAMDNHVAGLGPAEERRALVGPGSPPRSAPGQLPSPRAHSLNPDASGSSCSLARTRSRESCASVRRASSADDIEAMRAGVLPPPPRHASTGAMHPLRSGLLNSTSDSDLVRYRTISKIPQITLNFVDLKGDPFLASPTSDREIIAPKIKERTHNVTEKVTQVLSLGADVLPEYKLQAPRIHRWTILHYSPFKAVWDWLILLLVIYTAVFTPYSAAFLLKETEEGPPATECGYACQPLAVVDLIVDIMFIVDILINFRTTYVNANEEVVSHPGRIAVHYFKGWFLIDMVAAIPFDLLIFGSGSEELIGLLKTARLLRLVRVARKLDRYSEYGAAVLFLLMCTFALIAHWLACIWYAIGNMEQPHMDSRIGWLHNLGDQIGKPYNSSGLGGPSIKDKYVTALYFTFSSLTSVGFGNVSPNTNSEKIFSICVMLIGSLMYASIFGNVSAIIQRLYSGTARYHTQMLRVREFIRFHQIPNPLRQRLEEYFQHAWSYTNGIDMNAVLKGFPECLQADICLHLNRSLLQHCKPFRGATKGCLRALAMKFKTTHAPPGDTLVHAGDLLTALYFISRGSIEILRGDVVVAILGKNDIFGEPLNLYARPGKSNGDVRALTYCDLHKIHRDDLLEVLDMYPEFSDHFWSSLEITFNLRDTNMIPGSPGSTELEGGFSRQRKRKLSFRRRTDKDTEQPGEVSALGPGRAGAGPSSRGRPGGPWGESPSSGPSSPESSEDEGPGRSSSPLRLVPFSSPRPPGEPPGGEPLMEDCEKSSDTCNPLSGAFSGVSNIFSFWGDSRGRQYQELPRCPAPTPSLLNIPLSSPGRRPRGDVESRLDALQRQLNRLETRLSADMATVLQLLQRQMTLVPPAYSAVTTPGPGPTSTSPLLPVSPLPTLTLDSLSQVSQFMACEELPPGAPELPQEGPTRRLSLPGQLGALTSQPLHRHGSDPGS

SMILES: CCc1ccc(N(C)S(=O)(=O)N2CCCc3cc(N4CCN(C(C)=O)CC4)ccc32)cc1
- IC50 [1]: 13.1 µM

SMILES: CN(Cc1ccccc1)S(=O)(=O)N1CCCc2cc(N3CCN(C(=O)C4CCOCC4)CC3)ccc21
- IC50 [1]: 6.8 µM

SMILES: CC(=O)N1CCN(c2ccc(CN(C3CCC3)S(=O)(=O)Cc3ccccc3)cc2)CC1
- Imax [2]: 90.1%

SMILES: CN(Cc1ccccc1)S(=O)(=O)N1CCCc2cc(N3CCN(C(=O)C4CCOC4)CC3)ccc21 (stereo not drawn)
- IC50 [1]: 18.6 µM

SMILES: CN(Cc1ccccc1)S(=O)(=O)N1CCCc2cc(N3CCN(C(=O)C(F)(F)F)CC3)ccc21
- IC50 [1]: 4.9 µM

SMILES: CCc1ccc(S(=O)(=O)N2CCCc3cc(N4CCN(C(C)=O)CC4)ccc32)cc1
- IC50 [1]: 9.2 µM

SMILES: CN(Cc1ccccc1)S(=O)(=O)N1CCCc2cc(N3CCN(C(=O)C4CCCC4)CC3)ccc21
- IC50 [1]: 3.3 µM

SMILES: CC(=O)N1CCN(c2ccc3c(c2)CCCN3S(=O)(=O)N(C)Cc2ccc(C(O)(C(F)(F)F)C(F)(F)F)cc2)CC1
- IC50 [1]: 1.4 µM

SMILES: CC(=O)N1CCN(c2ccc3c(c2)CCCN3S(=O)(=O)N(C)Cc2ccc(SC(F)(F)F)cc2)CC1
- IC50 [1]: 6.6 µM

SMILES: CC(=O)N1CCN(c2ccc3c(c2)CCCN3S(=O)(=O)N(C)Cc2ccc(C(F)(F)F)o2)CC1
- IC50 [1]: 27 µM

SMILES: C[C@@H]1C[C@H]2[C@@H]3CCC4=CC(=O)C=C[C@]4(C)[C@@]3(F)[C@@H](O)C[C@]2(C)[C@@]1(O)C(=O)CO [DEXAMETHASONE]
- Activity (Mus musculus [3]): 18%
- Activity (Mus musculus [4]): 3.43 g
- Activity (Mus musculus [5]): Active

SMILES: CN(Cc1ccccc1)S(=O)(=O)N1CCCc2cc(N3CCN(C(=O)C4CCC4)CC3)ccc21
- IC50 [1]: 13 µM

SMILES: CC(=O)N1CCN(c2ccc3c(c2)C(C)(C)CCN3S(=O)(=O)N(C)Cc2ccccc2)CC1
- IC50 [1]: 9.5 µM

SMILES: CN(Cc1ccc(C(C)(C)C)cc1)S(=O)(=O)N1CCCc2cc(Nc3ccc4c(c3)CCCC4=O)ccc21
- concentration at 10 min [6]: 75 ng/mL
- Drug uptake [7]: 0.012 mg
- CLint scaled [8]: 301 mL/min/kg
- Activity (Mus musculus [9]): Active
- Activity (Mus musculus [10]): Active
- Activity [11]: Non-toxic
- Drug uptake [12]: 0.019 mg
- IC50 [13]: 1.57 µM
- Drug uptake [14]: Not_active
- Activity (Mus musculus [15]): Active
- IC50 [1]: 0.094 µM
- Drug uptake [16]: 4.82%
- Activity (Mus musculus [17]): Active
- Activity (Mus musculus [18]): 2.41 g
- microsomal CLint [19]: 76 µL/min/mg
- Drug uptake [20]: 5.79%
- IC50 [21]: > 40 µM
- Activity (Mus musculus [22]): Active
- Activity (Mus musculus [23]): Active
- Drug uptake [24]: 0.012 mg
- Activity [25]: Non-toxic
- Activity (Mus musculus [26]): Active
- Drug uptake [27]: 3.27%
- Drug uptake [28]: 5.22%
- Activity (Mus musculus [29]): Active
- Activity [30]: Non-toxic
- half-life [31]: 18.2 min
- Activity (Mus musculus [32]): Active
- Imax [2]: 95%
- Activity [33]: Non-toxic
- Activity [34]: Non-toxic
- Activity (Mus musculus [35]): 13%
- Activity (Mus musculus [36]): Active
- Activity (Mus musculus [37]): Active

SMILES: CCc1ccc(N(CC(C)C)S(=O)(=O)c2ccc(OCC3CCOCC3)c(CO)c2)cc1 [GSK2981278]
- Activity [38]: Non-toxic
- Activity (Mus musculus [36]): Active

Further compounds by falling IC50 [1], results first:

- IC50 [1]: 27 µM
SMILES: CC(=O)N1CCN(c2ccc3c(c2)CCCN3S(=O)(=O)N(C)C(C)c2ccc(F)cc2)CC1 (stereo not drawn)

- IC50 [1]: 19.1 µM
SMILES: CN(Cc1ccccc1)S(=O)(=O)N1CCCc2cc(N3CC4(CCOCC4)C3)ccc21

- IC50 [1]: 7.6 µM
SMILES: CC(=O)c1ccc(Nc2ccc3c(c2)CCCN3S(=O)(=O)N(C)Cc2ccccc2)cc1

- IC50 [1]: 0.648 µM
SMILES: CN(Cc1ccccc1)S(=O)(=O)N1CCCc2cc(N3CC4(COC4)C3)ccc21

- IC50 [1]: 0.29 µM
SMILES: CN(Cc1ccc(C(C)(C)C)cc1)S(=O)(=O)N1CCCc2cc(N3CCC(C(=O)O)CC3)ccc21

- IC50 [1]: 0.097 µM
SMILES: CC(=O)N1CCN(c2ccc3c(c2)N(S(=O)(=O)N(C)Cc2ccccc2)CCC3)CC1

- IC50 [1]: 0.021 µM
SMILES: CC(=O)N1CCN(c2cc(F)c3c(c2)CCCN3S(=O)(=O)N(C)Cc2ccccc2)CC1
